Assay results from ChEMBL document CHEMBL1136601, “Substituted aminopyridines as potent and selective phosphodiesterase-4 inhibitors” (Bioorg Med Chem Lett, 2003).
Calls of active or inactive are those of the source. The calls are words filed in the database; no cut-off is given here.

Experiments:
[1] = organism: Homo sapiens; assay: Inhibition of LPS-induced TNF-alpha production in human whole blood.; type: functional, organism-based
[2] = target: 3',5'-cyclic-AMP phosphodiesterase 4A (Homo sapiens, UniProt P27815); assay: Inhibitory activity against human PDE4A expressed isoform using construct representing the common region of spliced variants as GST-fusion protein in Sf9 cells.
[3] = Oral bioavailability (dose 20 mg/kg p.o.); type: ADME, organism-based; conditions: rat, in vivo
[4] = Cmax in rats after 20 mg/kg oral dose; type: ADME, organism-based; parameters: dose 20 mg/kg, route oral; conditions: rat, in vivo
[5] = Half life period after intravenous administration at 5 mg/kg in rat; type: ADME, organism-based; parameters: dose 5 mg/kg, route intravenous; conditions: in vivo
[6] = tested on: Cavia porcellus; assay: In vivo inhibition of ovalbumin-induced bronchoconstriction in conscious guinea pig at 1 mg/kg ip dose 30 hr prior to challenge; type: functional; conditions: route intraperitoneal
[7] = tested on: Ovis aries; assay: In vivo inhibition of ovalbumin-induced bronchoconstriction in sheep early phase at 20 mg/kg ip dose 30 hr prior to challenge; type: functional; conditions: route intraperitoneal
[8] = tested on: Ovis aries; assay: In vivo inhibition of ovalbumin-induced bronchoconstriction in sheep late phase at 20 mg/kg ip dose 2 hr prior to challenge; type: functional; conditions: route intraperitoneal
[9] = Cmax in ferrets after 30 mg/kg oral dose; type: ADME, organism-based, Mustela putorius furo; parameters: dose 30 mg/kg, route oral; conditions: ferret, in vivo
[10] = tested on: Mustela putorius furo; assay: Emesis in ferrets at 30 mg/kg oral dose; type: functional
[11] = tested on: Cavia porcellus; assay: In vivo inhibition of ovalbumin-induced bronchoconstriction in conscious guinea pig at 1 mg/kg ip dose 4 hr prior 4 hr to challenge; type: functional; conditions: route intraperitoneal
[12] = tested on: Ovis aries; assay: In vivo inhibition of ovalbumin-induced bronchoconstriction in sheep early phase at 2.0 mg/kg ip dose 4 hr prior to challenge; type: functional; conditions: route intraperitoneal
[13] = tested on: Ovis aries; assay: In vivo inhibition of ovalbumin-induced bronchoconstriction in sheep late phase at 2.0 mg/kg ip dose 2 hr prior to challenge; type: functional; conditions: route intraperitoneal

3',5'-cyclic-AMP phosphodiesterase 4A, sequence (P27815 whole entry, looked up, stated change not applied, the tested form may be a part, canonical isoform): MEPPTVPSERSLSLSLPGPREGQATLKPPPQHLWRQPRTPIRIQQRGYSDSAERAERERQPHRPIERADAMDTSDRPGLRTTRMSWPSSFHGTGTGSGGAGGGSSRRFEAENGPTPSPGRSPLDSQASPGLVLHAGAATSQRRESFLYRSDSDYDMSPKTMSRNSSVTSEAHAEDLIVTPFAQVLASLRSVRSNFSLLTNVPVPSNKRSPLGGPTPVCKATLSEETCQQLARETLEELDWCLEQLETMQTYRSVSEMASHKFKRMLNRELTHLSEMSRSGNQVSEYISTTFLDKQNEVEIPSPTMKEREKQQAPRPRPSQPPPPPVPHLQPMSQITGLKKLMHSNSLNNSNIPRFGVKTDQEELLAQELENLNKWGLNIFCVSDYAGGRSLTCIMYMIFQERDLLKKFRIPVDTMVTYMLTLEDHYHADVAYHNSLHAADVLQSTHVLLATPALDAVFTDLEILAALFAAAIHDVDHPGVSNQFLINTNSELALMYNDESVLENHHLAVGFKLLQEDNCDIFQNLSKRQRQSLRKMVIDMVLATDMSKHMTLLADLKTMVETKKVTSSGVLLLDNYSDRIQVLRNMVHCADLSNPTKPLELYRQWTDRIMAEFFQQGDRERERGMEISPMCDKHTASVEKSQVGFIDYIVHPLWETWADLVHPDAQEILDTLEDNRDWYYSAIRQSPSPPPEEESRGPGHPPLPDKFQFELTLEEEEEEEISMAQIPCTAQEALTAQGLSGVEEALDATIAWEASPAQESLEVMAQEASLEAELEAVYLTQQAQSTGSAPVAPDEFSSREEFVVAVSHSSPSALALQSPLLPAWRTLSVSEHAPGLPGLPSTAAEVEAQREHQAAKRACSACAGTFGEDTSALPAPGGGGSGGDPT

[O-][n+]1ccc(CC(c2ccc(NCc3ccccc3)nc2)c2ccc(OC(F)F)c(OC(F)F)c2)cc1 (stereo not given)
IC50 ([1]; Homo sapiens, Blood): 400 nM | IC50 [2]: 1.2 nM

CN(CCc1ccccc1)c1ccc(C(Cc2cc[n+]([O-])cc2)c2ccc(OC(F)F)c(OC(F)F)c2)cn1 (stereo not given)
IC50 ([1]; Homo sapiens, Blood): 800 nM | IC50 [2]: 5.8 nM

[O-][n+]1ccc(CC(c2ccc(N3CCCC3)nc2)c2ccc(OC(F)F)c(OC(F)F)c2)cc1 (stereo not given)
IC50 [2]: 31 nM

CC(C)Nc1ccc(C(Cc2cc[n+]([O-])cc2)c2ccc(OC(F)F)c(OC(F)F)c2)cn1 (stereo not given)
IC50 ([1]; Homo sapiens, Blood): 800 nM | IC50 [2]: 12 nM

CCN(Cc1ccccc1)c1ccc(C(Cc2cc[n+]([O-])cc2)c2ccc(OC(F)F)c(OC(F)F)c2)cn1 (stereo not given)
IC50 ([1]; Homo sapiens, Blood): 400 nM | IC50 [2]: 2.3 nM

Cc1c[n+]([O-])ccc1CC(c1ccc(C(O)(C(F)(F)F)C(F)(F)F)cc1)c1ccc(OC(F)F)c(OC(F)F)c1 (stereo not given)
IC50 ([1]; Homo sapiens, Blood): 300 nM | IC50 [2]: 1.3 nM

CC(=O)Nc1ccc(C(Cc2cc[n+]([O-])cc2)c2ccc(OC(F)F)c(OC(F)F)c2)cn1 (stereo not given)
IC50 ([1]; Homo sapiens, Blood): 1800 nM | IC50 [2]: 33 nM

CN(Cc1ccccc1)c1ccc(C(Cc2cc[n+]([O-])cc2)c2ccc(OC(F)F)c(OC(F)F)c2)cn1 (stereo not given)
IC50 ([1]; Homo sapiens, Blood): 300 nM | IC50 [2]: 1.2 nM

Nc1ccc(C(Cc2cc[n+]([O-])cc2)c2ccc(OC(F)F)c(OC(F)F)c2)cn1 (stereo not given)
IC50 ([1]; Homo sapiens, Blood): 1600 nM | IC50 [2]: 31 nM

C[C@@H](Nc1ccc(C(Cc2cc[n+]([O-])cc2)c2ccc(OC(F)F)c(OC(F)F)c2)cn1)c1ccccc1 (stereo not given in full)
IC50 ([1]; Homo sapiens, Blood): 900 nM | IC50 [2]: 1.7 nM

CC(C)(Nc1ccc(C(Cc2cc[n+]([O-])cc2)c2ccc(OC(F)F)c(OC(F)F)c2)cn1)c1ccccc1 (stereo in doubt; 3n)
IC50 [1]: 200 nM | IC50 [2]: 1.6 nM

CN(c1ccccc1)c1ccc(C(Cc2cc[n+]([O-])cc2)c2ccc(OC(F)F)c(OC(F)F)c2)cn1 (stereo not given)
IC50 ([1]; Homo sapiens, Blood): 2100 nM | IC50 [2]: 0.8 nM

CCN(c1ccc(C(Cc2cc[n+]([O-])cc2)c2ccc(OC(F)F)c(OC(F)F)c2)cn1)[C@H](C)c1ccccc1 (stereo not given in full)
IC50 ([1]; Homo sapiens, Blood): 200 nM | IC50 [2]: 0.6 nM

CC(C)(Nc1ccc(C(Cc2cc[n+]([O-])cc2)c2ccc(OC(F)F)c(OC(F)F)c2)cn1)c1ccccc1 (single isomer, unassigned; (-))
bioavailability [3]: 100% | Cmax [4]: 2.4 µM | half-life [5]: 2 h | Efficacy [6]: 54% | IC50 [1]: 100 nM | IC50 [2]: 0.8 nM | Efficacy [7]: 64% | Efficacy [8]: 97%

CCNC(=O)Nc1ccc(C(Cc2cc[n+]([O-])cc2)c2ccc(OC(F)F)c(OC(F)F)c2)cn1 (stereo not given)
IC50 ([1]; Homo sapiens, Blood): 1700 nM | IC50 [2]: 8.3 nM

CN(Cc1ccc2ccccc2c1)c1ccc(C(Cc2cc[n+]([O-])cc2)c2ccc(OC(F)F)c(OC(F)F)c2)cn1 (stereo not given)
IC50 ([1]; Homo sapiens, Blood): 300 nM | IC50 [2]: 1.5 nM

CC(C)N(Cc1ccccc1)c1ccc(C(Cc2cc[n+]([O-])cc2)c2ccc(OC(F)F)c(OC(F)F)c2)cn1 (stereo not given)
IC50 ([1]; Homo sapiens, Blood): 1000 nM | IC50 [2]: 9.3 nM

O=C(Cc1ccccc1)Nc1ccc(C(Cc2cc[n+]([O-])cc2)c2ccc(OC(F)F)c(OC(F)F)c2)cn1 (stereo not given)
IC50 ([1]; Homo sapiens, Blood): 3800 nM | IC50 [2]: 7.8 nM

CC(C)(Nc1ccc(C(Cc2cc[n+]([O-])cc2)c2ccc(OC(F)F)c(OC(F)F)c2)cn1)c1ccccc1 (stereo in doubt; (+)-3n)
IC50 [1]: 10000 nM | IC50 [2]: 23 nM

Cc1ccc(CCNc2ccc(C(Cc3cc[n+]([O-])cc3)c3ccc(OC(F)F)c(OC(F)F)c3)cn2)cc1 (stereo not given)
IC50 ([1]; Homo sapiens, Blood): 800 nM | IC50 [2]: 2.3 nM

C[C@H](c1ccccc1)N(C)c1ccc(C(Cc2cc[n+]([O-])cc2)c2ccc(OC(F)F)c(OC(F)F)c2)cn1 (stereo not given in full)
IC50 ([1]; Homo sapiens, Blood): 700 nM | IC50 [2]: 0.3 nM

O=S(=O)(Nc1ccc(C(Cc2cc[n+]([O-])cc2)c2ccc(OC(F)F)c(OC(F)F)c2)cn1)c1ccccc1 (stereo not given)
IC50 ([1]; Homo sapiens, Blood): 34000 nM | IC50 [2]: 16 nM

CC(C)(C)N(Cc1ccccc1)c1ccc(C(Cc2cc[n+]([O-])cc2)c2ccc(OC(F)F)c(OC(F)F)c2)cn1 (stereo not given)
IC50 ([1]; Homo sapiens, Blood): 17000 nM | IC50 [2]: 18 nM

[O-][n+]1ccc(CC(c2ccc(C(O)(C(F)(F)F)C(F)(F)F)cc2)c2ccc(OC(F)F)c(OC(F)F)c2)cc1 (stereo not given)
bioavailability [3]: 70% | Cmax [9]: 16 µM | Emesis_ED [10]: inactive | Cmax [4]: 3.5 µM | half-life [5]: > 24 h | Efficacy [11]: 58% | IC50 [2]: 4.2 nM | Efficacy [12]: 85% | Efficacy [13]: 95%
